Experimental data from patent US20090203644A1, “Compositions for treating and/or preventing diseases characterized by the presence of metal ions” (GrenPharma LLC, priority 2004, published 2009).
“Also recorded” adds a separate entry of the source. Where a name gives a salt, the structure may show the parent alone. Read-outs that look alike come from different tables or passages of the source.

Legend:
NF-M17 = target: T1, NF-M17 (Homo sapiens, UniProt P07197); experiment: CD titration: restoration of the CD spectrum of NF-M17 exposed to aluminum; type: biochemical
T1 construct: a seventeen amino acid region of the human neurofilament mid-sized subunit protein, NF-M17; host or cells: chemical synthesis

A-beta1-42 peptide [1] = target: T2, A-beta1-42 peptide (Homo sapiens, UniProt P05067); experiment: CD: reversal of the aluminum effect on the A-beta1-42 peptide spectrum (Example 3); type: biochemical
Caco-2 cells [2] = conditions: Caco-2
[3] = target: peptide 1 (A-beta1-42 peptide) (Homo sapiens, UniProt P05067); type: biochemical
A-beta antigen = tested on: A-beta antigen; parameters: species or system human
A-beta peptide fragment = A-beta peptide fragment (Homo sapiens, UniProt P05067); experiment: CD helix-coil reversal and pretreatment experiments (Example 11); type: biochemical
A-beta peptide = tested on: A-beta peptide; parameters: species or system human
Caco-2 cells [4] = tested on: Caco-2 cells
human subject = conditions: in vivo, po
A-beta1-42 peptide [5] = target: T2, A-beta1-42 peptide; type: biochemical

T2 sequence (P05067 672-713): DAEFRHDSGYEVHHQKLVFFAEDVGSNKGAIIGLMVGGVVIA
peptide 1 (A-beta1-42 peptide), sequence (P05067 672-713): as above
A-beta peptide fragment, sequence (P05067 672-713): as above

N#CCCC[Si](Cl)(Cl)Cl [CPTCS, 3-cyanopropyltrichlorosilane]
Restore original spectra? (NF-M17): Yes | equivalents at which the CD spectrum of NF-M17/aluminum is restored to (similar to) its original shape (NF-M17): around 32 equivalents | restoration of the original CD spectrum of the peptide after exposure to aluminum (A-beta1-42 peptide [1]): able to restore the CD spectrum | reversal of the effects of aluminum on the CD spectrum of the peptide (A-beta1-42 peptide [1]): Moderate reversal; also recorded: almost full reversal

CC[Si](Cl)(Cl)CC [DCDES, dichlorodiethylsilane]
Restore original spectra? (NF-M17): Yes | equivalents at which the CD spectrum of NF-M17/aluminum is restored to (similar to) its original shape (NF-M17): around 32 equivalents | restoration of the original CD spectrum of the peptide after exposure to aluminum (A-beta1-42 peptide [1]): at least partially restored

Trihydroxysilylmethyl phosphonate
permeation across Caco-2 cells compared with mannitol (Caco-2 cells [2]): slower permeation

Cl [HCl, hydrochloric acid, reference compound]
reversing the metal-induced helix-coil transition ([3]; acid, product of hydrolysis of chlorosilanes): itself effective for reversing the helix-coil transition | Total Extracted (fmol) (A-beta antigen): no detectable antigen | reversal of / protection from metal-induced loss of helix in TFE solutions (CD) (A-beta peptide fragment; polyvalent metal ions as perchlorate salts): can reverse the loss of helix

CCC(C#N)C[Si](C)(Cl)Cl (stereo not drawn) [CBMS, 2-cyanobutylmethyldichlorosilane]
Permeation Coefficient (cm/sec) Mean ± SD, where applicable (Caco-2 cells [2]; human): 6.5e-06 cm/s | Total Permeation Coefficient (cm/sec) Mean ± SD, where applicable, Caco-2 (Caco-2 cells [2]; human): 6.5e-06 cm/s | Total Permeation Coefficient (cm/sec) Mean ± SD, where applicable, MDCK (MDCK cells; dog): 1.5e-06 cm/s | total extracted (A-beta peptide): 3.6 fmol | recovery of helicity in Al-denatured peptide / reversal of aluminum-induced denaturation (CD) (A-beta peptide fragment): appeared to reverse aluminum-induced denaturation

CC(C)[Si](Cl)(Cl)C(C)C [DCDIPS, dichlorodiisopropylsilane]
Restore original spectra? (NF-M17): Yes | equivalents at which the CD spectrum of NF-M17/aluminum is restored to (similar to) its original shape (NF-M17): around 32 equivalents | restoration of the original CD spectrum of the peptide after exposure to aluminum (A-beta1-42 peptide [1]): at least partially restored

CC[Si](O)(CC)CC [TES, triethylsilanol]
Restore original spectra? (NF-M17): did not restore and No | restoration of the original CD spectrum of the peptide after exposure to aluminum (A-beta1-42 peptide [1]): at least partially restored

sodium orthosilicate [reference compound]
equivalents at which some return / beginning of return of the CD curve to its original shape is seen (NF-M17): 4 equivalents | equivalents at which the CD spectrum of NF-M17/aluminum is restored to (similar to) its original shape (NF-M17): around 16 equivalents | restoration of the original CD spectrum of the peptide after exposure to aluminum (A-beta1-42 peptide [1]): at least partially restored

CC(C#N)C[Si](C)(Cl)Cl (stereo not drawn) [CPMS, 2-cyanopropylmethyldichlorosilane]
permeation across Caco-2 cells compared with mannitol (Caco-2 cells [2]): approximately three times more efficiently | Permeation Coefficient (cm/sec) Mean ± SD, where applicable (Caco-2 cells [2]; human): 6.1 ± 1.7 × 10^−6 cm/sec | Total Permeation Coefficient (cm/sec) Mean ± SD, where applicable, Caco-2 (Caco-2 cells [2]; human): 6.1 ± 1.7 × 10^−6 cm/sec | Total Permeation Coefficient (cm/sec) Mean ± SD, where applicable, MDCK (MDCK cells; dog): 1.2e-06 cm/s | total extracted (A-beta peptide): 5.3 fmol | recovery of helicity in Al-denatured peptide / reversal of aluminum-induced denaturation (CD) (A-beta peptide fragment): appeared to reverse aluminum-induced denaturation

(dichloro)methylsilylbutyronitrile [DCMSBN]
Restore original spectra? (NF-M17): Yes | equivalents at which the CD spectrum of NF-M17/aluminum is restored to (similar to) its original shape (NF-M17): around 32 equivalents | transport across Caco-2 cells, FIG. 29B compounds compared with FIG. 29A compounds (Caco-2 cells [4]): more transport | transport across the Caco-2 cells (Caco-2 cells [4]): significant amount of transport | restoration of the original CD spectrum of the peptide after exposure to aluminum (A-beta1-42 peptide [1]): at least partially restored

C[Si](C)(Cl)CC[Si](C)(C)Cl
effect on development of neurofibrillary tangles and senile plaques (human subject): interferes with further development of neurofibrillary tangles and senile plaques

sodium metasilicate nonahydrate [reference compound]
equivalents at which some return / beginning of return of the CD curve to its original shape is seen (NF-M17): about 32 equivalents

dichlorosilacyclobutane [DCSCB]
transport across the Caco-2 cells (Caco-2 cells [4]): significant amount of transport | restoration of the original CD spectrum of the peptide after exposure to aluminum (A-beta1-42 peptide [1]): at least partially restored

trihydroxysilylmethyl phosphonate
crossing of the epithelial barrier in the Caco-2 model (Caco-2 cells [2]): permeated less efficiently

CCCCCC[Si](C)(Cl)Cl [HMDS, hexylmethyldichlorosilane]
Restore original spectra? (NF-M17): Yes | equivalents at which the CD spectrum of NF-M17/aluminum is restored to (similar to) its original shape (NF-M17): around 32 equivalents | restoration of the original CD spectrum of the peptide after exposure to aluminum (A-beta1-42 peptide [1]): at least partially restored

O[Si](O)(c1ccccc1)c1ccccc1 [DPSD, diphenylsilandiol]
Restore original spectra? (NF-M17; CD spectrum of NF-M17 with 8 equivalents of aluminum, titration up to 32 equivalents): did not restore; also recorded: (DMSO interfered with spectra)

CC(=O)O[Si](OC(C)=O)(OC(C)=O)OC(C)=O [TAS, tetraacetooxysilane]
restoration of the original CD spectrum of the peptide after exposure to aluminum (A-beta1-42 peptide [1]; 8 to 12 equivalents of aluminum): at least partially restored

[Zn] [Zinc]
effect on the A-beta1-42 CD spectrum (disruption of the alpha helix) (A-beta1-42 peptide [5]): minor or no effects

CC(C)(C)[Si](C)(C)O [TBDMS, tert-butyldimethylsilanol]
Restore original spectra? (NF-M17): did not restore and No

triethoxysilylbutyronitrile
crossing of the epithelial barrier in the Caco-2 model (Caco-2 cells [2]): crossed the epithelial barrier efficiently | permeation across Caco-2 cells compared with mannitol (Caco-2 cells [2]): at least four times greater | restoration of the original CD spectrum of the peptide after exposure to aluminum (A-beta1-42 peptide [1]): reverses aluminum-induced denaturation

C[Si](O)(O)CCCC#N [compound 3f, (dihydroxy)methyl(3-cyanopropyl)silane]
recovery of the CD spectrum on titration of iron-complexed peptide 1 [3]: dosage effect is evident, but non-linear | stability, solubility and effectiveness in reversing and/or preventing the effect of metal ion on helix formation [3]: efficient combination of stability, solubility, and effectiveness | titration point showing the greatest degree of recovery [3]: 0.25 eq.

CCCCCCCC[Si](Cl)(Cl)Cl [OTCS, n-octyltrichlorosilane]
Restore original spectra? (NF-M17): did not restore; also recorded: (gelation of OTCS)

triethoxysilylpropionitrile [TESP]
restoration of the original CD spectrum of the peptide after exposure to aluminum (A-beta1-42 peptide [1]): at least partially restored

CC[Si](O)(CC)Cc1ccccc1 [BDS, benzyldiethylsilanol]
Restore original spectra? (NF-M17): did not restore and No

C1CC[Si]2(CCCCO2)OC1 [SDSU, 1,7-dioxa-6-sila-spiro[5.5]undecane]
transport across the Caco-2 cells (Caco-2 cells [4]): significant amount of transport | restoration of the original CD spectrum of the peptide after exposure to aluminum (A-beta1-42 peptide [1]): at least partially restored

CN(C)[Si](N(C)C)(N(C)C)N(C)C [tetrakis, tetrakis(dimethylamino)silane]
restoration of the original CD spectrum of the peptide after exposure to aluminum (A-beta1-42 peptide [1]): at least partially restored

C[Si](Cl)(Cl)c1ccccc1 [MPDS, methylphenyldichlorosilane]
Restore original spectra? (NF-M17): Yes | equivalents at which the CD spectrum of NF-M17/aluminum is restored to (similar to) its original shape (NF-M17): around 32 equivalents

triethoxysilylbutyronitrile [TESB]
Cell Permeation Coefficient (cm/sec) Caco-2 (Caco-2 cells [2]): 3.7e-05 cm/s | Permeation Coefficient (cm/sec) Mean ± SD, where applicable (Caco-2 cells [2]): 3e-05 cm/s | Total Permeation Coefficient (cm/sec) Mean ± SD, where applicable, Caco-2 (Caco-2 cells [2]): 2.8 ± 1.8 × 10^−5 cm/sec | cell permeation coefficient compared with mannitol, Caco-2 (Caco-2 cells [2]): at least ten times greater | crossing of the epithelial barrier in the Caco-2 model (Caco-2 cells [2]): cross the epithelial barrier relatively efficiently | permeation across Caco-2 cells compared with mannitol (Caco-2 cells [2]): at least ten times greater | Cell Permeation Coefficient (cm/sec) MDCK (MDCK cells): 2.7e-05 cm/s | Total Permeation Coefficient (cm/sec) Mean ± SD, where applicable, MDCK (MDCK cells): 2.2 ± 1.4 × 10^−5 cm/sec | cell permeation coefficient compared with mannitol, MDCK (MDCK cells): at least ten times greater | crossing of the epithelial barrier in the MDCK model (MDCK cells): cross the epithelial barrier relatively efficiently | permeation across MDCK cells compared with mannitol (MDCK cells): at least ten times greater | transport across Caco-2 cells, FIG. 29B compounds compared with FIG. 29A compounds (Caco-2 cells [4]): more transport | transport across the Caco-2 cells (Caco-2 cells [4]): significant amount of transport | recovery of helicity in Al-denatured peptide / reversal of aluminum-induced denaturation (CD) (A-beta peptide fragment): appeared to reverse aluminum-induced denaturation | restoration of the original CD spectrum of the peptide after exposure to aluminum (A-beta1-42 peptide [1]): at least partially restored

NCCC[Si](O)(O)O [APST, 3-aminopropylsilantriol]
Restore original spectra? (NF-M17): Yes | chelation of aluminum compared to sodium orthosilicate (NF-M17): improved chelation of aluminum

trihydroxysilylmethyl phosphonate [TSMP]
Cell Permeation Coefficient (cm/sec) Caco-2 (Caco-2 cells [2]): 2e-07 cm/s | Permeation Coefficient (cm/sec) Mean ± SD, where applicable (Caco-2 cells [2]): 1.9 ± 1.5 × 10^−7 cm/sec | Total Permeation Coefficient (cm/sec) Mean ± SD, where applicable, Caco-2 (Caco-2 cells [2]): 1.9 ± 1.5 × 10^−7 cm/sec | permeation across Caco-2 cells compared with mannitol (Caco-2 cells [2]): slower permeation | Cell Permeation Coefficient (cm/sec) MDCK (MDCK cells): 5.4e-07 cm/s | Total Permeation Coefficient (cm/sec) Mean ± SD, where applicable, MDCK (MDCK cells): 5.2 ± 7.0 × 10^−7 cm/sec | permeation across MDCK cells compared with mannitol (MDCK cells): slower permeation

C[Si](Cl)(Cl)CC[Si](C)(Cl)Cl [1,2-(methyldichlorosilyl)ethane]
permeation across Caco-2 cells compared with mannitol (Caco-2 cells [2]): at least four times greater

[Fe+2] [iron (II)]
effect on the A-beta1-42 CD spectrum (disruption of the alpha helix) (A-beta1-42 peptide [5]): minor or no effects
